The results in this text go back to US20080175918A1, “CHEMICALLY CROSS-LINKED ELASTOMERIC MICROCAPSULES” (priority 2005, published 2008).

The series can be described thus: Rhodamine release from chemically cross-linked poly(dimethyl siloxane) microcapsules (fluorescence photomicrographs, confocal microscopy). Format: physicochemical. From the text: FIGS. 18(a)-(c). A series of photomicrographs (200× magnification) depicting a population of rhodamine B-containing chemically cross-linked elastomeric microcapsules one hour and one year after manufacturing. […] In Particular:
Elastomer-Permeable Therapeutic Agent Microencapsulation. Rhodamine dye was encapsulated within chemically cross-linked poly(dimethyl siloxane) microcapsules utilizing the hydrophilic agent encapsulation methods at low concentrations due to the hydrophilicity of the aqueous solution. However, rhodamine is hydrophobic and permeates vulcanized poly(dimethyl siloxane) in the same fashion as a hydrophobic therapeutic agent. The resultant population of microspheres was sieved and re-suspended in a dilute aqueous poly(vinyl alcohol) solution. Upon resuspension in the rhodamine-free aqueous solution, a series of fluorescence photomicrographs were obtained.
To further investigate the shell-permeability and partition coefficient of the rhodamine within chemically cross-linked elastomeric microcapsules samples of the population of microcapsules that was tested for release were imaged by confocal microscopy.

`CCN(CC)c1ccc2c(-c3ccccc3C(=O)O)c3ccc(=[N+](CC)CC)cc-3oc2c1` [Rhodamine dye, rhodamine B]: the “extended release of a model therapeutic (duration)” value (rhodamine in aqueous cores of cross-linked poly(dimethyl siloxane) microcapsules, in dilute aqueous poly(vinyl alcohol), unstirred at room temperature) was “greater than one year”. The burst effect result (upon resuspension in rhodamine-free aqueous solution) was “No burst effect was observed”.
